In patent US5420228A, “Fluorescent-labelled bleomycin analogues” (University of Pittsburgh of the Commonwealth System of …, priority 1994, dated 1995):
Entries after “also recorded” stand apart in the source; their conditions may differ.

Experiments:
C-10E cells [1] = experiment: MTT microculture growth inhibition assay, BLM-resistant C-10E cells; assay type: cell-based, human; settings: for IC50: cells exposed to drugs for 4 days, MTT, ± SEM; for resistance index C-10E: ratio of IC50 for C-10E cells compared to the IC50 for A-253 cells; for fold resistance of C-10E cells: C-10E clone relative to A-253 cells
Procedure: (§1) A-253 human head and neck squamous carcinoma cells were obtained from the American Type Culture Collection (Rockville, Md.) and were grown in McCoy's medium supplemented with 10% fetal bovine serum (Hyclone, Logan, Utah) as previously described. See, Lazo, J. S., et al., "Characteristics of Bleomycin-resistant Phenotypes of Human Cell Sublines and Circumvention of Bleomycin Resistance by Liblomycin," Cancer Res , 49: 185-190, (1989). The BLM-resistant (C-10E) cell line was derived from A-253 cells as previously described. Id., incorporated by reference herein, and was maintained in the continuous presence of 50 nM BLM. The revertant (C-10E^R) cells were obtained by growing C-10E cells in the absence of BLM for 3 months. Cell lines were maintained at 37° C. in a humidified incubator with 95% air, 5% CO2 atmosphere.
(§2) The effect of drugs on cellular proliferation was determined using the previously described MTT microculture assay. See, Twentyman, P. R., et al., "Study of Some Variables in a Tetrazolium Dye (MTT) Based Assay for Cell Growth and Chemosensitivity," Br. J Cancer, 56: 279-285, (1987). Exponentially growing cells were plated at a density of 2 to 4×10^3 cells per well in 100 μl volume into 96-well microtiter plates (Costar, Cambridge, Mass.). After 3 hours, various concentrations of drugs were added and the plates were incubated for 4 days at 37° C. under humidified 5% CO2 -95% air atmosphere. After 4 days, the medium was replaced with 100 μl of 1 mg/ml MTT in McCoy's medium, and cells were incubated with MTT solution in McCoy's medium for 3 hours at 37° C. Excess MTT was removed, the formazan generated was dissolved in 100 μl DMSO, and the absorbance at wavelength 540 nm was determined spectrophotometrically (Titertek Multiskan; Flow Labs, McLean, Va.). The drug concentrations required to inhibit cell growth by 50% (IC50) were then determined.

[2] = test system: A-253 human head and neck squamous carcinoma cells; experiment: MTT microculture growth inhibition assay, A-253 cells; assay type: cell-based; settings: for IC50: cells exposed to drugs for 4 days, MTT, ± SEM of 16 or more determinations
Procedure: as §1, §2

[3] = Fluorescent intensity and quantum yield in solution; assay type: physicochemical; settings: for relative fluorescent units: 1 μM solutions
Procedure: Absorption spectra were obtained using a Perkin-Elmer (Lambda 2) UV/VIS spectrophotometer. Fluorescence spectra were obtained by using either a Perkin-Elmer 650-10S fluorescent spectrophotometer or a SPEX Fluorolog 2. Proton NMR spectra were recorded with a Bruker 300 MHz pulsed fourier transform spectrometer. The chemical shifts were determined with respect to internal standards: tetramethylsilane or 4-trimethylsilylpropanesulfonic acid.

[4] = test system: form I plasmid pGEM-3Z DNA; experiment: DNA cleavage assay, agarose gel electrophoresis and densitometry; assay type: biochemical; settings: for form I DNA remaining after 1 minute incubation: equipotent concentrations: TLM S10b 0.05 μM, FLM 0.62 μM
Procedure: The ability of various drugs to cause breakage of covalently closed circular DNA was determined using a slight modification of a previously described DNA cleavage assay. See, Lazo, J. S., et al, "Enhanced Bleomycin-induced DNA Damage and Cytotoxicity with Calmodulin Antagonists," Molec. Pharmacol., 27: 387-393, (1985). Metal-free FLM was first made by chelating the metal with dithizone using a previously described procedure. See, Roy, S. R., et al., "Chemical Synthesis of Radiolabeled Bleomycin A2 and its Binding to DNA," Cancer Res., 41: 4471-4477, (1981), incorporated by reference herein. […] The disappearance of form I DNA and the appearance of form II and form III DNA were assayed by gel electrophoresis with 1.2% agarose gels at room temperature for 15 h at 30 V in a buffer containing 40 mM Tris-acetate and 1 mM EDTA. The gel was then stained with 1 μg/ml ethidium bromide for 1 hour and the DNA visualized by UV irradiation. A negative film of the gel was recorded and scanned using an LKB 2400 GelScan XL densitometer. The effect of incubation time on cleavage of pGEM-3Z DNA by TLM S10b and FLM was also determined using equipotent amounts of TLM S10b and FLM (0.05 and 0.62 μM, respectively) by gel electrophoresis as described above.
Equipotent concentrations of TLM S10b and FLM (0.05 and 0.62 μM, respectively) were incubated with form I DNA for 1, 5, 10, 20 and 30 minutes and the percent form I DNA remaining was calculated from densitometric scanning of the band corresponding to form I. Following incubation with FLM for 1 minute, only 6.5% form I DNA remained undegraded (lane 8). In contrast, 74% form I DNA remained intact following incubation with TLM S10b for 1 minute (lane 3) and 10 minutes incubation was required to cleave 95% of form I (lane 5).

C-10E^R cells [5] = experiment: MTT microculture growth inhibition assay, revertant C-10E^R cells; assay type: cell-based, human; settings: for resistance index C-10E ®: ratio of IC50 for C-10E ® cells compared to the IC50 for A-253 cells; for IC50: revertant cells, exposed to drugs for 4 days, MTT, ± SEM
Procedure: as §1, §2

C-10E cells [6] = experiment: Flow cytometric analysis of cellular FLM content, C-10E cells; assay type: cell-based, human
Procedure: (§3) For each analysis, a "control" was included in which each cell line was incubated under identical conditions in the absence of FLM. […] Cells were then suspended in 100 μl PBS, fixed with 2% paraformaldehyde in 100 μl PBS and analyzed by flow cytometry using a Becton-Dickinson FAC Star. Analysis was done using a 2 W laser tuned in at 488 nm at an output strength of 200 mW. The band pass filter range =530/30. The total number of cells analyzed was 5,000.
(§4) The cell diameter as measured by Coulter counter was similar for all the three cell lines ([…]).

A-253 cells [7] = experiment: Cell-associated drug by fluorescent spectrophotometry, A-253 cells; settings: 1 hour, 37° C.
Procedure: (§5) Exponentially growing A-253, C-10E or C-10E^R cells were harvested and approximately 1.5×10^6 cells were incubated in 200 µl medium at 37° C. for 60 minutes in the presence or absence of 100 μM FLM. Drug incubation was terminated by washing the cells with 3×1 ml of ice-cold PBS, resuspending the cells in 1 ml of 50 mM bicarbonate buffer (pH=9.0) and lysing by sonication (4×5 sec). The cell lysate was centrifuged at 12,000 rpm (Eppendorf Microcentrifuge 5415 C) to remove cellular debris, and the supernatant was filtered through 0.2 μm SPIN-X centrifuge filter unit (Costar, Cambridge, Mass.). The cell-associated fluorescent was measured using a fluorescent spectrophotometer. Autofluorescent associated with cells in the absence of drug treatment was measured and subtracted from the fluorescent value of the drug-treated group.
(§6) To quantify the levels of cell-associated FLM in A253, C-1OE and C-10E^R cell lines, cells were incubated with 100 μM FLM for 1 hour at 37° C. and the cellular fluorescent of the three cell lines were measured by fluorometry.

C-10E cells [8] = experiment: Cell-associated drug by fluorescent spectrophotometry, C-10E cells; assay type: cell-based, human
Procedure: as §5, §6

C-10E^R cells [9] = experiment: Cell-associated drug by fluorescent spectrophotometry, C-10E^R cells; assay type: cell-based, human; settings: 100 μM FLM, 1 hour, 37° C., fluorometry
Procedure: as §5, §6

C-10E^R cells [10] = experiment: Flow cytometric analysis of cellular FLM content, C-10E^R cells; assay type: cell-based, human
Procedure: as §3, §4

A-253 cells [11] = experiment: Flow cytometric analysis of cellular FLM content, A-253 cells; assay type: cell-based, human; settings: 100 μM FLM, 60 minutes, 37° C.
Procedure: as §3, §4

[12] = A-253 cells, continuous exposure

Compound: Cc1c(N)nc([C@H](CC(N)=O)NC[C@H](N)C(N)=O)nc1C(=O)N[C@H](C(=O)N[C@H](C)[C@@H](O)[C@H](C)C(=O)N[C@H](C(=O)NCCc1nc(-c2nc(C(=O)NCCCN(C)CCCN(Cc3ccc(OCc4ccccc4)c(OCc4ccccc4)c3)Cc3ccc(OCc4ccccc4)c(OCc4ccccc4)c3)cs2)cs1)[C@@H](C)O)[C@@H](O[C@@H]1O[C@@H](CO)[C@@H](O)[C@H](O)[C@@H]1O[C@H]1O[C@H](CO)[C@@H](O)[C@H](OC(N)=O)[C@@H]1O)c1cnc[nH]1 [LBM, liblomycin, reference compound]
- IC50 (C-10E cells [1]): 570 ± 20 nM
- resistance index C-10E (C-10E cells [1]): 1.1
- IC50 [2]: 500 ± 20 nM
- relative fluorescent units [3]: 2.1 relative fluorescent units

Compound: Cc1c(N)nc([C@H](CC(N)=O)NC[C@H](N)C(N)=O)nc1C(=O)N[C@H](C(=O)N[C@H](C)[C@@H](O)CC(=O)N[C@H](C(=O)NC(O[C@@H]1O[C@@H](C)[C@@H](N)[C@@H](O)[C@H]1O)C(O)c1nc(-c2nc(C(=O)NCCCCN)cs2)cs1)[C@@H](C)O)[C@@H](O[C@@H]1O[C@@H](CO)[C@@H](O)[C@H](O)[C@@H]1O[C@H]1O[C@H](CO)[C@@H](O)[C@H](OC(N)=O)[C@@H]1O)c1cnc[nH]1 (stereo partly drawn) [TLM S10b, talisomycin S10b, reference compound]
- fold resistance of C-10E cells (C-10E cells [1]): 40- to 50 fold
- IC50 (C-10E cells [1]): 2700 ± 23 nM
- resistance index C-10E (C-10E cells [1]): 54
- form I DNA remaining undegraded ([4]; 0.05 μM drug, 20 minutes, stoichiometric Fe(II)): 21.1%
- incubation required to cleave 95% of form I DNA ([4]; TLM S10b 0.05 μM): 10 min
- form I DNA remaining after 1 minute incubation [4]: 74%
- IC50 [2]: 50 ± 2.3 nM
- relative fluorescent units [3]: 2.6 relative fluorescent units
- resistance index C-10E ® (C-10E^R cells [5]): 8
- IC50 (C-10E^R cells [5]): 410 ± 9 nM

Compound: fluoromycin [FLM]
- fold resistance of C-10E cells (C-10E cells [1]): 50 fold
- IC50 (C-10E cells [1]): 66000 ± 1700 nM
- resistance index C-10E (C-10E cells [1]): 53
- form I DNA remaining after 1 minute incubation [4]: 6.5%
- rate of DNA cleavage relative to TLM S10b ([4]; equipotent doses compared directly): approximately 10 times
- times less potent than TLM S10b in DNA cleavage ([4]; metal-free FLM, stoichiometric Fe(II), 20 minutes): 12 times
- cleavage of plasmid DNA in vitro ([4]; result in words): able to cleave form I DNA; also recorded: cleaves pGEM-3Z plasmid DNA in vitro in a concentration-dependent manner
- times less potent than BLM A2 (antiproliferative potency) [2, 12]: 33 times
- times less potent than TLM S10b (antiproliferative potency) [2, 12]: 25 times
- IC50 [2]: 1250 ± 80 nM
- IC50 value times higher than TLM S10b or BLM A2 ([2]; growth inhibition assay): 25-30 times
- relative fluorescent units [3]: 836 relative fluorescent units
- fluorescent quantum yield ([3]; 50 mM bicarbonate buffer (pH=9.0), excited at 497 nm, emission maximum 523 nm): 0.71
- fluorescent intensity times greater than that of BLM A2, TLM S10b and LBM ([3]; equimolar solutions): 300 to 400 times
- mean fluorescent channel number (mean FL1) (C-10E cells [6]; C-10E cells, 100 μM FLM, 60 minutes, 37° C.): 61
- fold difference in fluorescent intensity, C-10E lower than A-253 cells (C-10E cells [6]; flow cytometry of FLM content): 4 fold
- fold difference in drug accumulation, FLM vs BLM A2 (A-253 cells [7]; 50 μM): ~2 fold
- cell-associated FLM (A-253 cells [7]; 100 μM FLM, fluorometry): 246 pmol/106 cells
- cell-associated drug, comparison of BLM A2 and FLM (A-253 cells [7]; 100 μM drug): 255 pmol/10^6 cells
- cell-associated FLM fold higher than for BLM A2 (A-253 cells [7]; 100 μM): approximately 2.5 fold
- resistance index C-10E ® (C-10E^R cells [5]): 18
- IC50 (C-10E^R cells [5]): 22000 ± 1100 nM
- cell-associated FLM (C-10E cells [8]; C-10E cells, 100 μM FLM, 1 hour, 37° C., fluorometry): 123 pmol/10^6 cells
- fold difference in cell-associated FLM, C-10E lower than A-253 cells (C-10E cells [8]; fluorescent spectrophotometry): 2 fold
- cell-associated FLM (C-10E^R cells [9]): 167 pmol/10^6 cells
- mean fluorescent channel number (mean FL1) (C-10E^R cells [10]; C-10E^R cells, 100 μM FLM, 60 minutes, 37° C.): 122
- fold lower fluorescent intensity, C-10E^R compared to A-253 cells (C-10E^R cells [10]; flow cytometry of FLM content): 2 fold
- mean fluorescent channel number (mean FL1) (A-253 cells [11]): 250
